For one experiment, the system named is mouse spleen cells. Briefly: Action on the blastogenesis of mouse spleen cells (ConA-stimulated, MTT reduction method). The conditions noted are these: ConA 1 µg/ml, 3 days, rate against no test compound = one; for activity at 0.1 µg/mL / activity at 0.2 µg/mL / activity at 0.39 µg/mL / activity at 0.78 µg/mL / activity at 1.56 µg/mL / activity at 3.13 µg/mL / activity at 6.25 µg/mL: Mus musculus, 72 h. Type of experiment: cell-based, BALB/c mouse. How it is done:
Serial two-fold dilutions (100 µl/well) with 10% FBS of test compounds which are dissolved in a dimethyl sulfoxide (DMSO) solution are obtained on a 96-well microplate, and used as test samples.
The spleen of a BALB/c mouse is aseptically isolated, and gently ground on a wire mesh with dropwise addition of sterilzed saline. The filtrate is passed through a nylon mesh (Becton Dickinson; pore size: 70 µm), thereby preparing a unicellular suspension.
After being washed twice with sterilized saline, the spleen cells are suspended in RPMI1460 containing 10% FCS and containing 1 µg/ml of concanavalin A (abbreviated as ConA: Sigma, U.S.) as well as an antibiotic (Sigma: Antibiotic Antimycotic), and dispensed into a 96-well microplate, in which 100 µl each of diluted test samples are previously dispensed, in amounts of 3 × 10^5 cells/100 µl/well.
Thereafter, culturing is carried out under 5% carbon dioxide gas at 37°C for 3 days, and then the blastogenesis of lymphocytes is measured by an MTT reduction method [Mosmann T, Journal of Immunological Method, vol. 65, p. 55, 1983]. The blastogenesis rate can be quantitated as a rate against the blastogenesis of those not having test compounds added thereto, which is defined as one. The presence of an immunoactivating action can be determined if the blastogenesis rate exceeds one.
Serial two-fold dilutions (100 µl/well) with RPMI1640 (Nikken Biomedical Laboratory) containing 10% FBS (bovine fetal serum: Dainippon Pharmaceutical Co., Ltd.) of test compounds which were dissoloved in a dimethylsulfoxide (DMSO) solution were obtained on a 96-well microplate, and used as test samples.
The spleen of a BALB/c mouse (a 6 week-old female) was aseptically isolated, and gently ground on a wire mesh with dropwise addition of sterilzed saline. The filtrate was passed through a nylon mesh (Becton Dickinson; pore size: 70 µm), thereby preparing a unicellular suspension.
After being washed twice with sterilized saline, the spleen cells were suspended in RPMI1460 containing 10% FCS and containing 1 µg/ml of concanavalin A (abbreviated as ConA: Sigma, U.S.) as well as an antibiotic (Sigma: Antibiotic Antimycotic), and dispensed into a 96-well microplate, in which 100 µl each of diluted test samples had previously been dispensed, in amounts of 3×10^5 cells/100 µl/well.
Thereafter, culturing was carried out under 5% carbon dioxide gas at 37°C for 3 days, and then the blastogenesis of lymphocytes was measured by an MTT reduction method [Mosmann T, Journal of Immunological Method, vol. 65, p. 55, 1983]. The results are shown in [Table 4].
On the technique in general: Tetrazolium dyes change colour on reduction, which living cells bring about.

Another experiment relates to mouse bone marrow cells. In words: Metabolism promoting action on mouse bone marrow cells (mitochondrial metabolism activity, MTT reduction method). Type of experiment: cell-based, BALB/c mouse. The conditions noted are these: 5 days, magnitude of metabolism, no test compound = one; for activity at 0.39 µg/mL / activity at 0.78 µg/mL / activity at 1.56 µg/mL / activity at 3.13 µg/mL / activity at 6.25 µg/mL / activity at 12.5 µg/mL: Mus musculus, Bone marrow cell, 120 h. An excerpt:
The presence of an immunoactivating action can be determined if the magnitude of metabolism exceeds one, where the cellular metabolism of cells not having test compounds added thereto is defined as one.

[1] abbreviates: concentration of additions in medium 0.1 μg/ml.
Where [2] appears, read: concentration of additions in medium 0.2 μg/ml.
Setting [3] is: concentration of additions in medium 0.39 μg/ml.
Setting [4] is: concentration of additions in medium 0.78 μg/ml.
Where [5] appears, read: concentration of additions in medium 1.56 μg/ml.
The mark [6] stands for this setting: concentration of additions in medium 3.13 μg/ml.
Where [7] appears, read: concentration of additions in medium 6.25 μg/ml.
The mark [8] stands for this setting: Test compound concentration 0.39 µg/ml.
Where [9] appears, read: Test compound concentration 0.78 µg/ml.
Setting [10] is: Test compound concentration 1.56 µg/ml.
The mark [11] stands for this setting: Test compound concentration 3.13 µg/ml.
Setting [12] is: Test compound concentration 6.25 µg/ml.
The mark [13] stands for this setting: Test compound concentration 12.5 µg/ml.

Consider seven compounds from patent EP1057825A1, “ISOFLAVANE DERIVATIVES AND IMMUNOPOTENTIATING COMPOSITIONS CONTAINING THE SAME” (SHIONOGI & CO., LTD., priority 1998, dated 1999).

In the case of “3-(2,4-dimethoxy-3-(3-methyl-2-butenyl)phenyl)-3,4-dihydro-5-hydroxy-7-methoxy-6-(3-methyl-2- butenyl)-2H-1-benzopyran [A-6]”, the blastogenesis rate with mouse spleen cells (setting [1]) is listed as 1.12; in the experiment with mouse spleen cells (setting [2]), 1.05; in the experiment on mouse spleen cells (setting [3]), 1.12; in the experiment with mouse spleen cells (setting [4]), 1.26; with mouse spleen cells (setting [5]), 1.55; in the experiment on mouse spleen cells (setting [6]), 2.46. Further, the blastogenesis rate in the experiment with mouse spleen cells (setting [7]) stood at 3.28. Further, the “metabolism activity of mouse bone marrow cells” value in the experiment with mouse bone marrow cells (setting [8]) came to 0.97; in the experiment with mouse bone marrow cells (setting [9]) it was 1.05; with mouse bone marrow cells (setting [10]), 1.20; with mouse bone marrow cells (setting [11]), 1.52; in the experiment on mouse bone marrow cells (setting [12]) it was 0.77; in the experiment on mouse bone marrow cells (setting [13]), 0.51.
As for `COc1c(CC=C(C)C)c(O)cc2c1CC(c1ccc(O)c(CC=C(C)C)c1O)CO2` (stereo not shown) [A-1, 4-[3,4-dihydro-7-hydroxy-5-methoxy-6-(3-methyl-2-butenyl)-2H-1-benzopyran-3-yl]-2-(3-methyl-2-butenyl)-1,3-benzenediol], the activity at 0.1 µg/mL with mouse spleen cells (setting [1]) is 113%. Further, in the experiment on mouse spleen cells (setting [2]), the activity at 0.2 µg/mL came to 109%. Further, the activity at 0.39 µg/mL was determined as 129% in the experiment with mouse spleen cells (setting [3]) and 114% in the experiment with mouse bone marrow cells (setting [8]). The results for the activity at 0.78 µg/mL in the experiment on mouse spleen cells (setting [4]) and in the experiment on mouse bone marrow cells (setting [9]) were 157% and 101%, respectively. The activity at 1.56 µg/mL in the experiment on mouse spleen cells (setting [5]) amounted to 188%; in the experiment with mouse bone marrow cells (setting [10]), 93%. For the same compound, the activity at 3.13 µg/mL came out at 225% with mouse spleen cells (setting [6]) and 127% in the experiment with mouse bone marrow cells (setting [11]). In addition, the activity at 6.25 µg/mL stood at 171% in the experiment on mouse spleen cells (setting [7]) and 198% with mouse bone marrow cells (setting [12]). Besides, in the experiment with mouse bone marrow cells (setting [13]), the activity at 12.5 µg/mL was 58%.
Take `COc1cc2c(c(OC)c1CC=C(C)C)CC(c1ccc(O)c(CC=C(C)C)c1O)CO2` (stereo not shown) [A-2, 4-[3,4-dihydro-5,7-dimethoxy-6-(3-methyl-2-butenyl)-2H-1-benzopyran-3-yl]-2-(3-methyl-2-butenyl)-1,3-benzenediol]: the activity at 0.1 µg/mL with mouse spleen cells (setting [1]) is 117%. In addition, the activity at 0.2 µg/mL with mouse spleen cells (setting [2]) turned out to be 112%. Also, in the experiment on mouse spleen cells (setting [3]), the activity at 0.39 µg/mL turned out to be 137%. The activity at 0.78 µg/mL in the experiment on mouse spleen cells (setting [4]) amounted to 184%. Moreover, the activity at 1.56 µg/mL in the experiment on mouse spleen cells (setting [5]) came to 234%. Moreover, in the experiment on mouse spleen cells (setting [6]), the activity at 3.13 µg/mL was 121%. For the same compound, the activity at 6.25 µg/mL in the experiment on mouse spleen cells (setting [7]) amounted to 26%.
For `COc1ccc(C2COc3cc(OC)c(CC=C(C)C)c(OC)c3C2)c(OC)c1CC=C(C)C` (stereo not shown) [A-3, 3-(2,4-dimethoxy-3-(3-methyl-2-butenyl)phenyl)-3,4-dihydro-5,7-dimethoxy-6-(3-methyl-2-butenyl)-2H-1-benzopyran], the activity at 0.1 µg/mL in the experiment on mouse spleen cells (setting [1]) amounted to 98%. Further, the activity at 0.2 µg/mL with mouse spleen cells (setting [2]) came to 88%. Also, the figures for the activity at 0.39 µg/mL in the experiment on mouse spleen cells (setting [3]) and in the experiment with mouse bone marrow cells (setting [8]) were 88% and 111%, respectively. For the same compound, the activity at 0.78 µg/mL in the experiment with mouse spleen cells (setting [4]) stood at 79%; with mouse bone marrow cells (setting [9]), 108%. Also, the activity at 1.56 µg/mL in the experiment with mouse spleen cells (setting [5]) came to 83%; with mouse bone marrow cells (setting [10]), 114%. Besides, the activity at 3.13 µg/mL stood at 120% in the experiment on mouse spleen cells (setting [6]) and 114% in the experiment with mouse bone marrow cells (setting [11]). For the same compound, the activity at 6.25 µg/mL in the experiment with mouse spleen cells (setting [7]) came out at 246%; with mouse bone marrow cells (setting [12]) it was 111%. The activity at 12.5 µg/mL in the experiment on mouse bone marrow cells (setting [13]) was 62%.
Regarding `COc1ccc(C2COc3cc(OC)c(CC=C(C)C)c(OC)c3C2)c(O)c1CC=C(C)C` (stereo not shown) [A-4, 3-(2-hydroxy-4-methoxy-3-(3-methyl-2-butenyl)-phenyl)-3,4-dihydro-5,7-dimethoxy-6-(3-methyl-2-butenyl)-2H-1-benzopyran], the activity at 0.1 µg/mL with mouse spleen cells (setting [1]) came out at 105%. In the experiment with mouse spleen cells (setting [2]), the activity at 0.2 µg/mL was found to be 101%. The results for the activity at 0.39 µg/mL in the experiment on mouse spleen cells (setting [3]) and in the experiment on mouse bone marrow cells (setting [8]) were 109% and 107%, respectively. Moreover, the activity at 0.78 µg/mL came out at 113% in the experiment with mouse spleen cells (setting [4]) and 107% in the experiment with mouse bone marrow cells (setting [9]). The activity at 1.56 µg/mL in the experiment on mouse spleen cells (setting [5]) was 155%; in the experiment on mouse bone marrow cells (setting [10]), 121%. Moreover, the activity at 3.13 µg/mL in the experiment with mouse spleen cells (setting [6]) is 231%; in the experiment with mouse bone marrow cells (setting [11]), 132%. The activity at 6.25 µg/mL was 375% with mouse spleen cells (setting [7]) and 133% with mouse bone marrow cells (setting [12]). The activity at 12.5 µg/mL in the experiment with mouse bone marrow cells (setting [13]) came out at 58%.
As to `COc1cc2c(c(OC)c1CC=C(C)C)CC(c1ccc(O)c(CC=C(C)C)c1OC)CO2` (stereo not shown) [A-5, 3-(4-hydroxy-2-methoxy-3-(3-methyl-2-butenyl)-phenyl)-3,4-dihydro-5,7-dimethoxy-6-(3-methyl-2-butenyl)-2H-1-benzopyran], the activity at 0.1 µg/mL with mouse spleen cells (setting [1]) is 101%. Moreover, in the experiment with mouse spleen cells (setting [2]), the activity at 0.2 µg/mL was 96%. In addition, the activity at 0.39 µg/mL worked out at 107% with mouse spleen cells (setting [3]) and 116% in the experiment with mouse bone marrow cells (setting [8]). The activity at 0.78 µg/mL in the experiment with mouse spleen cells (setting [4]) was found to be 111%; in the experiment on mouse bone marrow cells (setting [9]) it was 120%. For the same compound, the values for the activity at 1.56 µg/mL with mouse spleen cells (setting [5]) and in the experiment on mouse bone marrow cells (setting [10]) were 118% and 138%, respectively. In addition, the activity at 3.13 µg/mL with mouse spleen cells (setting [6]) turned out to be 209%; in the experiment with mouse bone marrow cells (setting [11]), 146%. Besides, the activity at 6.25 µg/mL with mouse spleen cells (setting [7]) was determined as 239%; in the experiment with mouse bone marrow cells (setting [12]), 55%. Moreover, in the experiment with mouse bone marrow cells (setting [13]), the activity at 12.5 µg/mL came out at 53%.
For the compound `COc1ccc(C2COc3cc(O)c(CC=C(C)C)c(OC)c3C2)c(O)c1CC=C(C)C` (stereo not shown) [A-7, 3-(2-hydroxy-4-methoxy-3-(3-methyl-2-butenyl)-phenyl)-3,4-dihydro-5-methoxy-7-hydroxy-6-(3-methyl-2-butenyl)-2H-1-benzopyran], the activity at 0.1 µg/mL in the experiment on mouse spleen cells (setting [1]) worked out at 113%. For the same compound, the activity at 0.2 µg/mL in the experiment on mouse spleen cells (setting [2]) came to 107%. The activity at 0.39 µg/mL in the experiment on mouse spleen cells (setting [3]) turned out to be 132%; with mouse bone marrow cells (setting [8]), 103%. Also, the activity at 0.78 µg/mL with mouse spleen cells (setting [4]) came to 161%; in the experiment with mouse bone marrow cells (setting [9]) it was 112%. Moreover, the activity at 1.56 µg/mL in the experiment on mouse spleen cells (setting [5]) is 195%; in the experiment with mouse bone marrow cells (setting [10]), 139%. For the same compound, the values for the activity at 3.13 µg/mL in the experiment on mouse spleen cells (setting [6]) and with mouse bone marrow cells (setting [11]) were 293% and 152%, respectively. For the same compound, the activity at 6.25 µg/mL with mouse spleen cells (setting [7]) came out at 408%; with mouse bone marrow cells (setting [12]), 51%. For the same compound, in the experiment with mouse bone marrow cells (setting [13]), the activity at 12.5 µg/mL was 51%.
